Experimental findings from patent US20090239839A1, “RECEPTOR ANTAGONIST” (TAKEDA PHARMACEUTICAL COMPANY LIMITED, priority 2003, published 2009) are described below.

The target of one test is T1, human-type OT7T022 (Homo sapiens, UniProt Q9GZQ6).
T1 construct: expressed in transfected cells; host or cells: CHO cells (membrane fraction)
The experiment in a line: Binding inhibiting activity using human-type OT7T022-expressing CHO cell. Conditions: 125I-labeled Y-RFRP-3 100 pM, membrane fraction, room temperature 1.5 hours; read-out: IC50 value (binding inhibiting rate). The method, then:
Assessment of Binding Inhibiting Activity of Test Compound Using Human-Type OT7T022-Expressing CHO Cell
Twenty μm of a peptide (Y-RFRP-3) (sequence: Tyr-Val-Pro-Asn-Leu-Pro-Gln-Arg-Phe-amide) (0.1 mM) in which a Tyr residue had been added to a N-terminus of hRFRP-3-8 (sequence: Val-Pro-Asn-Leu-Pro-Gln-Arg-Phe-amide) having binding inhibiting activity equivalent to that of endogenous human-type RFRP-3 (hRFRP-3-28) for human-type OT7T022-expressing CHO cell and 10 μl of distilled water were mixed, 20 μl of a lactoperoxidase solution (Sigma, prepared using 0.1 M HEPES-NaOH, pH 7.0 in 10 μg/mL), 10 μl of Iodine-125 (Amersham, IMS-30, 74 MBq), and 20 μl of 0.005% hydrogen peroxide (Wako Pure Chemical Industries, Ltd.) were successively mixed therein, the mixture was allowed to stand at room temperature for 10 minutes, 600 μl of 0.1% TFA-water was added, this was separated by reverse phase HPLC, a peak of the labeled form was collected, an equivalent amount of a buffer for a binding test (50 mM TrisHCl (pH 7.5), 0.1% BSA, 5 mM EDTA, 0.5 mM PMSF, 20 μg/mL leupeptin, 0.1 μg/mL pepstatin A, […]) was added, and this was immediately stored on ice. A part thereof was 1/100 diluted, radioactivity was measured with a γ-counter, and the remaining authentic product was distributed, which was stored at −30° C.
To a 96-well microplate were added 1 μg of a membrane fraction, a compound and Y-RFRP-3 labeled with ^125I, which had been diluted with a reaction buffer (50 mM Tris-HCl, 5 mM EDTA, 0.1% BSA, 0.5 mM PMSF, 20 μg/ml leupeptin, 0.1 μg/ml pepstatin A, 4 μg/ml E-64, 10 mM MgCl2, pH 7.5), to 100 pM to react them at room temperature for 1.5 hours. For measuring non-specific binding, non-labeled Y-RFRP-3 was further added to […]. Then, a membrane fraction was transferred to a unifilter GF/C (Perkin Elmer) by filtering the reaction mixture using a cell harvester (Perkin Elmer), and this was washed with a cooled 50 mM Tris buffer (pH 7.5) five times. The filter was dried, Microsinti (Packard) was added to the filter, and radioactivity was measured with Topcount (Packard).
A binding inhibiting rate (IC50 value) of a test compound is shown in [Table 1].

The next test deals with T2, rat-type OT7T022 (Rattus norvegicus, UniProt Q9EP86).
T2 construct: expressed in transfected cells; host or cells: CHO cells (membrane fraction)
T2 sequence (Q9EP86 whole entry): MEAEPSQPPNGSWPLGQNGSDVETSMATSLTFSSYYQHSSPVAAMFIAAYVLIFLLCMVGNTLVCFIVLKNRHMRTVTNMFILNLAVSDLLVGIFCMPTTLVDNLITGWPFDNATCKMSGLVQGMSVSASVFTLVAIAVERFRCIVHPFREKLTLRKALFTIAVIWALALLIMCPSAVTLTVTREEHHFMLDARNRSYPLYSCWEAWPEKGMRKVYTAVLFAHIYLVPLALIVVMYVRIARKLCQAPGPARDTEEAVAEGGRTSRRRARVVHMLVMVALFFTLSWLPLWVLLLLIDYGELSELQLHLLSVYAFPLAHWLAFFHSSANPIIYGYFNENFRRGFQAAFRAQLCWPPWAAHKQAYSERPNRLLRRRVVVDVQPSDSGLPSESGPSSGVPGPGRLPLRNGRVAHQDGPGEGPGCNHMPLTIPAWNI
The experiment in a line: Binding inhibiting activity using rat-type OT7T022-expressing CHO cell membrane fraction. The following applies: iodine-labeled Y-RFRP-3 100 pM, membrane fraction 0.75 μg/well. Here is the method:
Assessment of Binding Inhibiting Activity of Test Compound Using Rat-Type OT7T022-Expressing CHO Cell
A flask in which a rat-type OT7T022-expressing CHO cell had been cultured was washed with 5 mM EDTA/PBS, cells were peeled with 5 mM EDTA/PBS, and cells were recovered by centrifugation, suspended in 25 mL of a buffer for preparing a membrane fraction (50 mM Tris-HCl, pH 7.5, 5 mM EDTA, 0.5 mM PMSF (manufactured by Wako Pure Chemical Industries, Ltd.), […] (manufactured by Peptide Laboratory), 0.1 μg/mL pepstatin A (manufactured by Peptide Laboratory), 4 μg/mL E-64 (manufactured by Peptide Laboratory)), and homogenized on an ice using Polytron (12,000 rpm, 15 seconds×3 times). This was centrifuged in a high speed cooling centrifuge at 4° C. and 1,000 g for 10 minutes, and the supernatant was recovered. 25 mL of a buffer for preparing a membrane fraction was added to precipitates, and the supernatant was recovered by the same procedure. These supernatants were combined, subjected to a cell strainer, dispensed into tubes for a supercentrifuge, and centrifuged at 4° C. and 100,000 g for 1 hour. The pellet was suspended in a small amount of a buffer for preparing a membrane fraction, this was suspended using a Teflon (registered trade mark) homogenizer, a protein amount was measured using a part, and the remaining was dispensed, and stored at −80° C.
Using an assay buffer (50 mM Tris-HCl, pH 7.5, 5 mM EDTA, 0.5 mM PMSF, 20 μg/mL leupeptin, 0.1 μg/mL pepstatin A, 4 μg/mL E-64, 0.1% bovine serum albumin, 10 mM MgCl2), a membrane fraction of a rat-type OT7T022-expressing CHO cell was diluted to the final concentration of 0.75 μg/well, and iodine-labeled Y-RFRP-3 was diluted to the final concentration of 100 pM. Regarding a sample compound, a 10^−2M or 10^−3M stock solution was diluted with an assay buffer so that the final concentration became 10^−5M, 10^−6M, 10^−7M, 10^−8M, 10^−9M, 10^−10M or 10^−11M. For non-specific binding, hRFRP-3-8 having the final concentration of 10^−5M was prepared. Using a polypropylene 96-well plate, a prepared sample solution, a non-specific binding solution, and 50 μl of an assay buffer for total binding were dispensed, 25 μl of an iodine-labeled form diluent was added, the mixture was stirred, 25 μl of a rat-type OT7T022-expressing CHO cell membrane fraction solution was dispensed, and this was stirred, and incubated at room temperature for 1.5 hours. This was transferred to a unifilter (Perkin Elmer) pre-wetted with a washing buffer (50 mM Tris-HCl, pH 7.5) using a harvester for a 96-well plate (Packard), and this was washed with a washing buffer six times, and sufficiently dried. 50 μl of Microscinti O (Packard) was dispensed, radioactivity was measured with Top Count (Packard), and data were analyzed in a triplicate manner. Binding inhibiting activity (IC50 value) of a test compound for rat-type OT7T022 is shown in [Table 3].

A further test relates to ICR mouse. Nature of the test: Analgesic activity in mouse, SP-it test method. In kind it is in vivo. The following applies: for Chewing time: counted for 1 minute. Here is the method: Analgesic Activity in Mouse
Analgesic activity of an RFRP receptor antagonist on provisional pain caused by intrathecal injection (it administration) of substance P (SP) was investigated. In a test, one group (10 animals) of an ICR mouse (♂), 5 week old, was used. A skin of a back of a mouse was excised under ether anesthesia and, after 3 hours or longer recovering time, substance P (SP) was dissolved in a physiological saline, and this was administered by intrathecal injection (between L5-L6) at 10 ng/5 μL/mouse. A physiological saline and the compound of Example 50 were administered by intrathecal injection as a mixed solution with substance P (SP) at a dose of 1, 3 or 10 μg/mouse. From immediately after administration, the number of alternate chewing at a lower abdomen by a mouse was counted for 1 minute, and the time was used as an index for a provisional pain reaction due to substance P (SP).

A further test concerns RFRP-1-administered rats. Nature of the test: Inhibitory activity of increase in blood glucose and blood glucagon concentration in RFRP-1-administered rats. It is filed as in vivo, rat.

pIC50: −log10 of the molar value. Counter-ions that a name gives are not always drawn.

What is called pIC50 is the negative decadic logarithm of the IC50, by convention in mol/L.

T1 sequence (Q9GZQ6 whole entry): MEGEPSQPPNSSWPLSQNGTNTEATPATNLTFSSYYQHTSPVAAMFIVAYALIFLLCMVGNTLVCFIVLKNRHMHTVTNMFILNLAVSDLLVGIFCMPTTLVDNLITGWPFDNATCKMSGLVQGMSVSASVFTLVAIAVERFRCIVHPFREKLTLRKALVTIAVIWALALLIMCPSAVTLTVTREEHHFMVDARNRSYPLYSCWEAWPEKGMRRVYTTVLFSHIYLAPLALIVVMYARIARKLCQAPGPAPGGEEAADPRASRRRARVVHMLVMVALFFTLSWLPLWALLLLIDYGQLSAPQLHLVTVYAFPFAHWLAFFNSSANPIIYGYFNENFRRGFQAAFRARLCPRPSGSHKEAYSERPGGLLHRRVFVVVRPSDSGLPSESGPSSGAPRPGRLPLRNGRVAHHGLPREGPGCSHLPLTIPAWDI

Consider `CCCCCNCCCOc1cccc([C@H]2O[C@H](CC(=O)NCc3ccccc3F)C(=O)N(CC(C)(C)C)c3ccc(Cl)cc32)c1OC` (relative stereo) [Example 4, 2-{3,5-trans-7-Chloro-1-(2,2-dimethylpropyl)-5-[2-methoxy-3-(3-(pentylamino)propoxy)phenyl]-2-oxo-1,2,3,5-tetrahydro-4,1-benzoxazepin-3-yl}-N-(2-fluorobenzyl)acetamide hydrochloride], for which the pIC50 on human-type OT7T022 and at rat-type OT7T022 was > 6.00 in each case.
Regarding `COc1c(OCCCNCCCc2ccccc2Cl)cccc1[C@H]1O[C@H](CC(=O)NCc2ccccc2F)C(=O)N(CC(C)(C)C)c2ccc(Cl)cc21` (relative stereo) [Example 14, trans-2-{7-Chloro-5-[3-(3-{[3-(2-chlorophenyl)propyl]amino}propoxy)-2-methoxyphenyl]-1-(2,2-dimethylpropyl)-2-oxo-1,2,3,5-tetrahydro-4,1-benzoxazepin-3-yl}-N-(2-fluorobenzyl)acetamide hydrochloride], the pIC50 at human-type OT7T022 and on rat-type OT7T022 was > 6.00 in each case.
For `COc1c(OCCCNC/C=C/c2ccccc2)cccc1[C@H]1O[C@H](CC(=O)NCc2ccccc2F)C(=O)N(CC(C)(C)C)c2ccc(Cl)cc21` (relative stereo) [Example 18, trans-2-[7-Chloro-1-(2,2-dimethylpropyl)-5-[2-methoxy-3-(3-{[(2E)-3-phenyl-2-propenyl]amino}propoxy)phenyl]-2-oxo-1,2,3,5-tetrahydro-4,1-benzoxazepin-3-yl]-N-(2-fluorobenzyl)acetamide hydrochloride], the pIC50 on human-type OT7T022 and on rat-type OT7T022 was > 6.00 each time.
As to `CCCNC(=O)C[C@H]1O[C@H](c2cccc(OCCCNCCCc3ccccc3)c2OC)c2cc(Cl)ccc2N(CC(C)(C)C)C1=O` (relative stereo) [Example 46, trans-2-[7-Chloro-1-(2,2-dimethylpropyl)-5-(2-methoxy-3-{3-[(3-phenylpropyl)amino]propoxy}phenyl)-2-oxo-1,2,3,5-tetrahydro-4,1-benzoxazepin-3-yl]-N-propylacetamide hydrochloride], the negative-log IC50 (pIC50) on human-type OT7T022 and at rat-type OT7T022 was > 6.00 in each case.
As for `COc1c(OCCCNCCCc2ccccc2)cccc1[C@H]1O[C@H](CC(=O)N2CCNCC2)C(=O)N(CC(C)(C)C)c2ccc(Cl)cc21.Cl.Cl` (relative stereo) [Example 50, trans-7-Chloro-1-(2,2-dimethylpropyl)-5-(2-methoxy-3-{3-[(3-phenylpropyl)amino]propoxy}phenyl)-3-[2-oxo-2-(1-piperazinyl)ethyl]-1,5-dihydro-4,1-benzoxazepine-2(3H)-one dihydrochloride], the “analgesic activity (pain reaction due to substance P)” value with ICR mouse (1, 3 or 10 μg/mouse intrathecal) is “a pain reaction due to substance P (SP) is inhibited in a dose dependent manner”. Besides, the Chewing time was 71.8 ± 5.1 in the test with ICR mouse (dose 1 μg/mouse intrathecal with substance P 10 ng/mouse), 18.6 ± 4.1 in the test on ICR mouse (dose 3 μg/mouse intrathecal with substance P 10 ng/mouse) and 0.0 ± 0.0 in the test on ICR mouse (dose 10 μg/mouse intrathecal with substance P 10 ng/mouse). In the test with ICR mouse (dose of 3 and 10 μg/mouse intrathecal), the “decrease in the chewing time” value is “significant (p<0.01) decrease in the chewing time”. Also, the pIC50 at human-type OT7T022 and on rat-type OT7T022 was > 6.00 each time. Also, the “inhibition of activity of increasing blood glucose concentration due to RFRP-1” value in the test on RFRP-1-administered rats (5 mg/kg intravenous) is on record as “inhibited significantly (p<0.01, n=4)”. Further, the “inhibition of activity of increasing blood glucagon concentration due to RFRP-1” value in the test with RFRP-1-administered rats (5 mg/kg intravenous, 2 minutes after administration of RFRP-1 (p<0.05)) is reported as “significantly inhibited”; with RFRP-1-administered rats (5 mg/kg intravenous, 5 minutes after administration of RFRP-1 (p<0.001)), “significantly inhibited”. Further, the “inhibition of increase in blood glucagon concentration due to RFRP-1” value in the test on RFRP-1-administered rats (0.2, 1 or 5 mg/kg intravenous 5 minutes before RFRP-1) is reported as “inhibits increase in a blood glucagon concentration due to RFRP-1 in a dose dependent manner”. Further, the “inhibition of increase in blood glucose concentration due to RFRP-1” value with RFRP-1-administered rats (0.2, 1 or 5 mg/kg intravenous 5 minutes before RFRP-1, vs control group) is “inhibits increase in a blood glucose concentration due to RFRP-1 in a dose dependent manner”.
On to `COc1c(OCCCNCCCc2ccccc2)cccc1[C@H]1O[C@H](CC(=O)N2CCC(O)CC2)C(=O)N(CC(C)(C)C)c2ccc(Cl)cc21` (relative stereo) [Example 85, trans-7-Chloro-1-(2,2-dimethylpropyl)-3-[2-(4-hydroxypiperidin-1-yl)-2-oxoethyl]-5-(2-methoxy-3-{3-[(3-phenylpropyl)amino]propoxy}phenyl)-1,5-dihydro-4,1-benzoxazepine-2(3H)-one hydrochloride], for which the pIC50 at human-type OT7T022 and on rat-type OT7T022 was > 6.00 throughout.
With `COc1c(OCCCNCCCc2ccccc2)cccc1[C@H]1O[C@H](CC(=O)N2CCNC(C(=O)O)C2)C(=O)N(CC(C)(C)C)c2ccc(Cl)cc21` (relative stereo) [Example 86, 4-{[3,5-trans-7-Chloro-1-(2,2-dimethylpropyl)-5-(2-methoxy-3-{3-[(3-phenylpropyl)amino]propoxy}phenyl)-2-oxo-1,2,3,5-tetrahydro-4,1-benzoxazepin-3-yl]acetyl}piperazine-2-carboxylic acid dihydrochloride], the pIC50 on human-type OT7T022 and on rat-type OT7T022 was > 6.00 each time.
